Measurements taken from ChEMBL document CHEMBL1201862, “PubChem BioAssay data set” (2004).
One block for each compound: values may come before it. The source made the active and inactive calls.

What was measured:
Cysteine protease ATG4B = Cysteine protease ATG4B (Homo sapiens, UniProt Q9Y4P1); assay type: functional;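 also: Fluorescence-based dose-response confirmation assay measuring inhibition of ATG4B activity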
Phospholipase A2 = Phospholipase A2 (Homo sapiens, UniProt P04054); assay type: functional;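 also: confirmatory dose-response counterscreen on phospholipase A2, testing hits that came from an ultra-high-throughput screen for ATG4B inhibitors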
Chain of Phospholipase A2 (P04054 whole entry): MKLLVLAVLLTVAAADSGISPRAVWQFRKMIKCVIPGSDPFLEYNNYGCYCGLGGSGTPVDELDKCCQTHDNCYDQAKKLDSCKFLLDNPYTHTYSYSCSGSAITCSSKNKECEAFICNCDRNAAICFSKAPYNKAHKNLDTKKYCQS

[1] = molecular target: Voltage-dependent T-type calcium channel subunit alpha-1H (Homo sapiens, UniProt O95180); assay type: functional;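 also: channel activity triggered by adding a high calcium stimulation buffer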
Vero = Vero cell cytotoxicity, cytotoxicity control for flavivirus capping enzyme inhibitors (AID 588742); assay type: functional; settings: Chlorocebus sabaeus
Genome polyprotein = Genome polyprotein (dengue virus type 2, UniProt P29990); assay: Dengue-2 NS5 methyltransferase inhibitors, primary screen, biochemical, confirmation dose response (AID 588689); assay type: functional
Chain of Genome polyprotein (P29990 2492-3391 limits assumed): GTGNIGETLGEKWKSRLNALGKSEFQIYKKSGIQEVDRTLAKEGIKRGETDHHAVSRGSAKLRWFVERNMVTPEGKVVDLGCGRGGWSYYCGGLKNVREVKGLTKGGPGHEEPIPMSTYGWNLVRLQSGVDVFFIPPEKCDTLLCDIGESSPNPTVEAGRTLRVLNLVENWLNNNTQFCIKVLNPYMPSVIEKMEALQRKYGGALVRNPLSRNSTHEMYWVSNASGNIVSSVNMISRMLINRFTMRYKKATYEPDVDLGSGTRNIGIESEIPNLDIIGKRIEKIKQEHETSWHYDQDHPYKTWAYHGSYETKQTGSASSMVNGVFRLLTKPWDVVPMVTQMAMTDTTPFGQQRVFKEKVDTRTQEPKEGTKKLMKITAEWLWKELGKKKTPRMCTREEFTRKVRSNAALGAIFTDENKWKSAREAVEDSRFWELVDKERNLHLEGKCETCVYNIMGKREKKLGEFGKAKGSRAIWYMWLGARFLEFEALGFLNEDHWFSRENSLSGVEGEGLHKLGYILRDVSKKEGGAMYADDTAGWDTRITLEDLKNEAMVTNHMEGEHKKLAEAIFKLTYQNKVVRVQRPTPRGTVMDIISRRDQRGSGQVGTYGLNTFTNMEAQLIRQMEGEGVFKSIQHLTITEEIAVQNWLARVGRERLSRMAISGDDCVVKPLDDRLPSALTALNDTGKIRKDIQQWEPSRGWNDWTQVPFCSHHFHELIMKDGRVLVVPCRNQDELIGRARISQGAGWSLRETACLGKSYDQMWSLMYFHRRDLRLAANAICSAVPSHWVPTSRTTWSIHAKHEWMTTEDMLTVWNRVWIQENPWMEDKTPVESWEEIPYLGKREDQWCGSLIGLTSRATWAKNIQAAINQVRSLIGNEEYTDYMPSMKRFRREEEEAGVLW

[2] = molecular target: T1, Sentrin-specific protease 8 (Homo sapiens, UniProt Q96LD8); assay: SENP8 protease inhibitors, SAR follow-up, biochemical, luminescence (AID 504501); assay type: functional
T1 sequence (Q96LD8 whole entry): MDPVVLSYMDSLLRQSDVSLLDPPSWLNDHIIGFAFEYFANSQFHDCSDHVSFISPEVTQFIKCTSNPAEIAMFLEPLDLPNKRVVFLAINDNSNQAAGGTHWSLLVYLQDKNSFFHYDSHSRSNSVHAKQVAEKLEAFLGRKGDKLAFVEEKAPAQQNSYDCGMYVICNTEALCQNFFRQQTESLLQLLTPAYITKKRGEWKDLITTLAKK

Caspase-3 = molecular target: T2, Caspase-3 (Homo sapiens, UniProt P42574); assay: SAR Analysis of small molecule inhibitors of Sentrin-specific proteases (SENPs) using a Caspase-3 Selectivity assay. [Related pubchem assays (depositor defined):AID2540, AID2599, AID434973, AID489001]; assay type: functional
T2 sequence (P42574 whole entry): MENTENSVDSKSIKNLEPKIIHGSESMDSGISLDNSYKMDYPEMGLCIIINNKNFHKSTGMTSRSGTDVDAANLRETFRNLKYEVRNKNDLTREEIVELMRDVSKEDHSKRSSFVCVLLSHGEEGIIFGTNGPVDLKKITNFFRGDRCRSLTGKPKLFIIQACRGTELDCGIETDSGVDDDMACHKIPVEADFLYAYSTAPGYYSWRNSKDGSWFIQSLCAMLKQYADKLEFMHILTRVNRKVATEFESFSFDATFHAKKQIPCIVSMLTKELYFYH

[3] = molecular target: T3, Sentrin-specific protease 6 (Homo sapiens, UniProt Q9GZR1); assay: SAR Analysis of small molecule inhibitors of Sentrin-specific protease 6 (SENP6) using a Luminescent assay. [Related pubchem assays (depositor defined):AID2582, AID2599]; assay type: functional
T3 sequence (Q9GZR1 whole entry): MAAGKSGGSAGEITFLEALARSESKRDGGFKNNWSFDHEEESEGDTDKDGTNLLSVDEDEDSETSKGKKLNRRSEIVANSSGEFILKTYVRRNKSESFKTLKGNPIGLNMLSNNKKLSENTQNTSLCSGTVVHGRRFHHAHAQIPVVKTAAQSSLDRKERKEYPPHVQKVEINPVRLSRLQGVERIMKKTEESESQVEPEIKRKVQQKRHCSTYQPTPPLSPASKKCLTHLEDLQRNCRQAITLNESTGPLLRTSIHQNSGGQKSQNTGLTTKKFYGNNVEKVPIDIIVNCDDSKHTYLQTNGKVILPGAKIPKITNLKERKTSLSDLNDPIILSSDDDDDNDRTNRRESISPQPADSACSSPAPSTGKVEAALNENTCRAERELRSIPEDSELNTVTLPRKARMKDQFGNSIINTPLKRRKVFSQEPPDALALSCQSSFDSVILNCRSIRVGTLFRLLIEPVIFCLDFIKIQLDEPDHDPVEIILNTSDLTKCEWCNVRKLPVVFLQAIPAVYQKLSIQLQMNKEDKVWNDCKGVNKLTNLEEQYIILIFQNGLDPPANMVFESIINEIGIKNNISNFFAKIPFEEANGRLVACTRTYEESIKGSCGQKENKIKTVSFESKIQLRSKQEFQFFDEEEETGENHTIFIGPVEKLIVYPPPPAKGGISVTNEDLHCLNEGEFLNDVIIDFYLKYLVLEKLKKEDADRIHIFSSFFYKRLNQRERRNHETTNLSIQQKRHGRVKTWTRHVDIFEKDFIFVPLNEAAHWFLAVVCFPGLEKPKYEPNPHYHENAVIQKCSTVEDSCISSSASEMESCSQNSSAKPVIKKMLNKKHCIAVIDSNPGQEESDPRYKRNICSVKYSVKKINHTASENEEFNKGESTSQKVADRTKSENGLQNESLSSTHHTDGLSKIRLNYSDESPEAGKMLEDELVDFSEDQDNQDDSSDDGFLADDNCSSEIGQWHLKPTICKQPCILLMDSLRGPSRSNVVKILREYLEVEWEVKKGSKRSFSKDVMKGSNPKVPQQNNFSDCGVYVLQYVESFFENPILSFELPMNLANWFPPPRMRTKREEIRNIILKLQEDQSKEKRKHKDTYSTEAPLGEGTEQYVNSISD

[4] = molecular target: T4, Sentrin-specific protease 7 (Homo sapiens, UniProt Q9BQF6); assay: SENP7 protease inhibitors, SAR follow-up, biochemical, luminescence (AID 504497); assay type: functional
T4 sequence (Q9BQF6 whole entry): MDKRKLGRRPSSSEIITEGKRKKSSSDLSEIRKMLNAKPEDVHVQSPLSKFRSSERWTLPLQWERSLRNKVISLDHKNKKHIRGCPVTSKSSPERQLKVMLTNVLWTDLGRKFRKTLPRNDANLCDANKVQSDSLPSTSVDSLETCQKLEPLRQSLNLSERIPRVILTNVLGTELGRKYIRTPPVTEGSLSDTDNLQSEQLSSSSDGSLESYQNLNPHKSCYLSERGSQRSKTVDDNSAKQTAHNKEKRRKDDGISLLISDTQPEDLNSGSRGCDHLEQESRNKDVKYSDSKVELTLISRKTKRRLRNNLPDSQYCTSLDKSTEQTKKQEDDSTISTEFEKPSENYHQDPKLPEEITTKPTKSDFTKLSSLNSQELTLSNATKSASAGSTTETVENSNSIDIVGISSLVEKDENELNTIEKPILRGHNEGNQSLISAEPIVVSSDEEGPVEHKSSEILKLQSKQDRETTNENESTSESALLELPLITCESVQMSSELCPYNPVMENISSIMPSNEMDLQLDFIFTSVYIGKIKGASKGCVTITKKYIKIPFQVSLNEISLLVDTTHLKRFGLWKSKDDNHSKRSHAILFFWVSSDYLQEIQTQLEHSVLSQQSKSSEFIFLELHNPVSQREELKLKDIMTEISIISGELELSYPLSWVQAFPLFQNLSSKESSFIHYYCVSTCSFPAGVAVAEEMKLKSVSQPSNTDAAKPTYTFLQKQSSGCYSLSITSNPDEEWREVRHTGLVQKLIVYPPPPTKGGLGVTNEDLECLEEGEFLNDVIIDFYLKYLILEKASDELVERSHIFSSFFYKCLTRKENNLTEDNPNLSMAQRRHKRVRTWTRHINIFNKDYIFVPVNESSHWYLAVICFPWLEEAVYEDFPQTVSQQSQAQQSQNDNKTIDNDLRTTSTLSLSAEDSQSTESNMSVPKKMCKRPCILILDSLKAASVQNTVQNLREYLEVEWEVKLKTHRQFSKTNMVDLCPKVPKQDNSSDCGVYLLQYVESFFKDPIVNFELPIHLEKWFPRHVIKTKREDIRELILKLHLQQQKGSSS

[5] = HEp-2 cell cytotoxicity, dose response, cytotoxicity control for RSV inhibitor project, HTS (AID 2410); assay type: functional; settings: human respiratory syncytial virus
[6] = growth suppression of PTEN-null colon cells, dose response, cell-based, HCT116 PTEN knockout (AID 1047); assay type: functional;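 also: HCT116 colon tumor cells with PTEN knocked out; cells exposed to compound for 60 hours before readout; potency for loss of cell viability measured by luminescence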
[7] = growth suppression of beta-catenin-knockout colon cells, dose response, cell-based, HCT116, human colon tumor (AID 1045); assay type: functional;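 also: HCT116 colon tumor cells with beta catenin knocked out; cells exposed to compound for 60 hours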
CHO = assay: cytotoxicity in TLR9-MyD88 CHO cells, dose response, cytotoxicity control for TLR9-MyD88 binding inhibitor project, cell-based, luminescence (AID 588339); assay type: functional, hamster; settings: Cricetulus griseus;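 also: CHO cells stably coexpressing TLR9 and MyD88 fusions from primary screen; compound exposure lasted 48 hours before viability readout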
Beta Lactamase = Beta Lactamase (Pseudomonas aeruginosa, UniProt Q932Y6); assay: beta-lactamase reporter inhibitor potency, dose response, artefact control for TLR9-MyD88 binding inhibitor project, BLA reporter cells, FRET fluorescence (AID 588341); assay type: cell-based;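 also: cell based assay in CHO-K1 cells stably expressing beta-lactamase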
Chain of Beta Lactamase (Q932Y6 whole entry, the tested form may be a part): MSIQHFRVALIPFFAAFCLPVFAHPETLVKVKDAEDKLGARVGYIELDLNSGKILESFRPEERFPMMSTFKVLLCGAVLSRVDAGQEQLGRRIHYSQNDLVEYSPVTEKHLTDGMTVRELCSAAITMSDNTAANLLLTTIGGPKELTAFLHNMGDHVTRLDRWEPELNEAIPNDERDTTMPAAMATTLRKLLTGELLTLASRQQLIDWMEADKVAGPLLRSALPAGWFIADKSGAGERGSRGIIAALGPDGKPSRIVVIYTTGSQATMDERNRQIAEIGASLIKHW

LIM domain kinase 1 = LIM domain kinase 1 (Homo sapiens, UniProt P53667); assay: Navigating the Kinome. Panel member name: LIMK1; assay type: functional
Chain of LIM domain kinase 1 (P53667 whole entry, the tested form may be a part): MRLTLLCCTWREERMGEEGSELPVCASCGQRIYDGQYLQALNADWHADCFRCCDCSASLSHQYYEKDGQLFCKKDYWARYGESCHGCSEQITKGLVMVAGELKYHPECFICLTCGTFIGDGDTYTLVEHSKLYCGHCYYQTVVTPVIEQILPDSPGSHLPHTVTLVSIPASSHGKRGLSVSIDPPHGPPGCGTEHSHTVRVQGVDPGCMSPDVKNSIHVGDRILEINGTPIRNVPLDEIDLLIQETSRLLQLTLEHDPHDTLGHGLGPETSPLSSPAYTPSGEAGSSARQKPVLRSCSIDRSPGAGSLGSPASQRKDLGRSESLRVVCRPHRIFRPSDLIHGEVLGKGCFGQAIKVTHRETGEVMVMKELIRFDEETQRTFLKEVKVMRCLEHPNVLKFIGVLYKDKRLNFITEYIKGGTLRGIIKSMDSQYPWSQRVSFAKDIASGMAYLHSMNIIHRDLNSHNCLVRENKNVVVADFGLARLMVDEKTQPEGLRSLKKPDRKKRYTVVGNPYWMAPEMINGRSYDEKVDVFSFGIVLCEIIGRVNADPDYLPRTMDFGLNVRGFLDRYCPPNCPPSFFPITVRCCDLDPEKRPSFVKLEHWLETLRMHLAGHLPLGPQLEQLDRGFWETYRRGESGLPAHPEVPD

[8] = molecular target: Hepatocyte growth factor receptor (Homo sapiens, UniProt P08581); assay type: functional;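 also: kinase panel profiling across the kinome, with MET as the panel member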
[9] = molecular target: T5, Serine/threonine-protein kinase Chk1 (Homo sapiens, UniProt O14757); assay type: functional;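 also: measured as one member of a kinome-wide kinase profiling panel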
T5 sequence (O14757 whole entry): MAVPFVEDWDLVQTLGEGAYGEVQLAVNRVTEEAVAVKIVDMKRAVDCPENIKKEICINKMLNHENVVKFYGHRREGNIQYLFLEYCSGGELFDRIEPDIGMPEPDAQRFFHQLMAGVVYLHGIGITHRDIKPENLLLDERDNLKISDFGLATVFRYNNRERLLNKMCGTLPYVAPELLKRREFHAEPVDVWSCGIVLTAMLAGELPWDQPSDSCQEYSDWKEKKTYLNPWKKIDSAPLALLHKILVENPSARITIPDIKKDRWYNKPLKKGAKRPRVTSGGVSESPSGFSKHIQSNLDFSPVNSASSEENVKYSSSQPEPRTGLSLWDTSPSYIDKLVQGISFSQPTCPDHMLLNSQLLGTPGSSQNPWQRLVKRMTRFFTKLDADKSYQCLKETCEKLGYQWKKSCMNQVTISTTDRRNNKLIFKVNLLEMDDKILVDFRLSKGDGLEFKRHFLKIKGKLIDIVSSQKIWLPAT

[10] = molecular target: Dual specificity tyrosine-phosphorylation-regulated kinase 1B (Homo sapiens, UniProt Q9Y463); assay: Navigating the Kinome. Panel member name: DYRK1B; assay type: functional
Chain of Dual specificity tyrosine-phosphorylation-regulated kinase 1B (Q9Y463 whole entry): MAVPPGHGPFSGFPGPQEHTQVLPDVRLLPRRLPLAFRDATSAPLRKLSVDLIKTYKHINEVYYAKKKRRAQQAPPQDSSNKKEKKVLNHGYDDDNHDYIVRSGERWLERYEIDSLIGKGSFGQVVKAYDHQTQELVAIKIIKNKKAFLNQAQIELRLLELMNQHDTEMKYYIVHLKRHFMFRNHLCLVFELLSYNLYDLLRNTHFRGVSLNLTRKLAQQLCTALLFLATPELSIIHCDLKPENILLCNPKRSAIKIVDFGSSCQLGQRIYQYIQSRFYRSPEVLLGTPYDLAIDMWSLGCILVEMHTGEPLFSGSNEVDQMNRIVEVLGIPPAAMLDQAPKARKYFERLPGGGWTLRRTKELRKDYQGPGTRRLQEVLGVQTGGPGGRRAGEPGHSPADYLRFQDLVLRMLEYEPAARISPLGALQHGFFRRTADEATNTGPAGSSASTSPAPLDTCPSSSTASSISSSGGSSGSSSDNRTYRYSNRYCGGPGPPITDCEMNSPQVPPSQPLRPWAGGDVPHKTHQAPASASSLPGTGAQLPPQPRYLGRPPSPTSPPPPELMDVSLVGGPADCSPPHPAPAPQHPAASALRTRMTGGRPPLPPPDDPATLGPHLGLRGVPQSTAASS

[11] = molecular target: Glycogen synthase kinase-3 beta (Homo sapiens, UniProt P49841); assay type: functional;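 also: value comes from a broad kinome profiling panel, with GSK3B as the panel member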
Chain of Glycogen synthase kinase-3 beta (P49841 whole entry): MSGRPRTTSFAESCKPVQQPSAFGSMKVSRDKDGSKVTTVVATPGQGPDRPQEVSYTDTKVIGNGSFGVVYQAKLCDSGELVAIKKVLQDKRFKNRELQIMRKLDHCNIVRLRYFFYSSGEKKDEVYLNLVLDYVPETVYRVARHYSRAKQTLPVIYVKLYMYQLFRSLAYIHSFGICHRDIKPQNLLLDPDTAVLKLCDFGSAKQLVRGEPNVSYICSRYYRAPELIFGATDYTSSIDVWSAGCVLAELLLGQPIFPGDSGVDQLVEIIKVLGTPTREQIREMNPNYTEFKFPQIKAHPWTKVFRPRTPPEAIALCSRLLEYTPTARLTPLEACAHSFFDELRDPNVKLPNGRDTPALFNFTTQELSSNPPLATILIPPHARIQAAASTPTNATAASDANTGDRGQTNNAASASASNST

[12] = molecular target: Dual specificity protein kinase CLK4 (Homo sapiens, UniProt Q9HAZ1); assay type: functional
Chain of Dual specificity protein kinase CLK4 (Q9HAZ1 whole entry): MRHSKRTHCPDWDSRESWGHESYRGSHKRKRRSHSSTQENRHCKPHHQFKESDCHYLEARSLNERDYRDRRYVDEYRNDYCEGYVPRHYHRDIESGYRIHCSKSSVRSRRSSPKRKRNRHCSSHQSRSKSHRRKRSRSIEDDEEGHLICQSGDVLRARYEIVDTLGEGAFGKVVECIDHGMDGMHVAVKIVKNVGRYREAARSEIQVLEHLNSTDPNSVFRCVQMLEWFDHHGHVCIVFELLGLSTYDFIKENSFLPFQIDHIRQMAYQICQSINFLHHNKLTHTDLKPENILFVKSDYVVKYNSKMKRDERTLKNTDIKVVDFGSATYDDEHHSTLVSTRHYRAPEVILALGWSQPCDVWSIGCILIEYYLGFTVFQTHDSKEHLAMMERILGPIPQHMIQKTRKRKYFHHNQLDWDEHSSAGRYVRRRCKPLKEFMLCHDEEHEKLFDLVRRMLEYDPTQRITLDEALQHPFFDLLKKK

[13] = molecular target: Dual specificity tyrosine-phosphorylation-regulated kinase 1A (Homo sapiens, UniProt Q13627); assay type: functional;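 also: measured against DYRK1A as one member of a broad kinome profiling panel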
[14] = molecular target: Induced myeloid leukemia cell differentiation protein Mcl-1 (Homo sapiens, UniProt Q07820); assay type: functional
Chain of Induced myeloid leukemia cell differentiation protein Mcl-1 (Q07820 whole entry): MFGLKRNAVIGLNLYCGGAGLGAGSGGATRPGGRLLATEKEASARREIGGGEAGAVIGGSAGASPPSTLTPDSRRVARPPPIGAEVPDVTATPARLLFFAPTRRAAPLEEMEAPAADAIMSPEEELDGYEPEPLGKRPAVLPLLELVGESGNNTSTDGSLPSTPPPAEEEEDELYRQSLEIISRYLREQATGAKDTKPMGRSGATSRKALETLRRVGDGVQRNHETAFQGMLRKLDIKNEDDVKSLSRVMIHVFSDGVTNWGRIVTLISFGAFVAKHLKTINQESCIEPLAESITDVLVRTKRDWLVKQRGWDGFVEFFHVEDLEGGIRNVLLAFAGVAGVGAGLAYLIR

Chain of Cysteine protease ATG4B (Q9Y4P1 whole entry): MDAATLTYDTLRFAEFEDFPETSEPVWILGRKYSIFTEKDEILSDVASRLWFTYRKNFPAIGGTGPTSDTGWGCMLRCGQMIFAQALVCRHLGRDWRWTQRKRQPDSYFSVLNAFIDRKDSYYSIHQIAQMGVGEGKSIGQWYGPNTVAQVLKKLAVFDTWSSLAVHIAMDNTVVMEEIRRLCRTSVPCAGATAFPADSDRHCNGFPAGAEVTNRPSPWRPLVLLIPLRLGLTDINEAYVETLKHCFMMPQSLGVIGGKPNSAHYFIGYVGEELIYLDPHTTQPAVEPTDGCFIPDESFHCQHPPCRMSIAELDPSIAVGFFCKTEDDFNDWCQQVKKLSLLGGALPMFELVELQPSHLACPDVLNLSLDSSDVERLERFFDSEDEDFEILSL

IC50 (Genome polyprotein): 48 µM (active)
SMILES: COC(=O)COc1ccc(C(C2C(=O)CC(C)(C)CC2=O)C2C(=O)CC(C)(C)CC2=O)cc1
CC50 (Vero): > 40 µM (active)

IC50 (Caspase-3): > 99 µM (inactive)
IC50 [3]: > 99 µM (inactive)
IC50 [4]: > 99 µM (inactive)
SMILES: O=C(Nc1nc2ccc(Cl)cc2s1)c1nn(-c2ccccc2)ccc1=O
IC50 [2]: > 99 µM (inactive)

Ki (LIM domain kinase 1): 15.8 µM (active)
Ki [8]: 79.4 µM (active)
Ki [9]: 15.8 µM (active)
Ki [10]: 63.1 µM (active)
Ki [11]: 79.4 µM (active)
Ki [12]: 12.6 µM (active)
Ki [13]: 25.1 µM (active)
SMILES: COC(=O)c1csc2ccc(=O)[nH]c12

IC50 [14]: 2.28 µM (active)
IC50 (Genome polyprotein): > 100 µM (active)
SMILES: COc1ccccc1NC1=C(NC(C)=O)C(=O)c2ccccc2C1=O
CC50 (Vero): > 40 µM (active)

Second part, the compound before the results:

SMILES: CCOC(=O)C1CCCN(C(=O)c2ccc3c(=O)n(Cc4ccccc4OC)c(=S)[nH]c3c2)C1 (stereo unspecified)
IC50 (Cysteine protease ATG4B): 19.6 µM (active)
IC50 (Phospholipase A2): 9.33 µM (active)

SMILES: Cc1cccc(C)c1OCC(=O)Nc1cccc(NC(=O)c2ccco2)c1
EC50 [1]: 6.78 µM (active)
IC50 (Cysteine protease ATG4B): 15.9 µM (active)
IC50 (Phospholipase A2): 8.37 µM (active)

SMILES: COc1ccccc1NS(=O)(=O)c1cc([N+](=O)[O-])ccc1N/N=C/c1c[nH]c2ccccc12
CC50 [5]: 41.7 µM (active)
EC50 [6]: 21.9 µM (active)
EC50 [7]: 21.8 µM (active)
IC50 (CHO): 32 µM (inactive)
IC50 (Beta Lactamase): 2.74 µM (active)
